From ChEMBL document CHEMBL1152012, “Synthesis of (+)-biotin derivatives as HIV-1 protease inhibitors” (Bioorg Med Chem Lett, 1996) come the findings set out here.

Test [1] concerns the target Human immunodeficiency virus type 1 protease (Human immunodeficiency virus 1, UniProt Q72874). The test is described as follows: Inhibitory activity against HIV protease enzyme.
The subject of a further test is MT2. Briefly: Concentration resulting in 90% inhibition of viral RNA production in HIV-1 infected MT-2 cells. The class given is functional. The following applies: Homo sapiens.

In the case of `O=C1N(Cc2cccc(Br)c2)C2CS[C@@H](CCCCCO)C2N1Cc1cccc(Br)c1` (some centres not stated), in test [1], the Ki (in general, a measure of affinity in units of concentration, obtained from inhibition or displacement) came to 0.5 µM. Besides, the IC90 – broadly, the concentration needed for an effect of 90% – with MT2 came to 7 µM.

As for `CC(O)c1cccc(CN2C(=O)N(Cc3cccc(C(C)O)c3)C3C2CS[C@H]3CCCCCO)c1` (some centres not stated), in test [1], the inhibition constant (Ki) was 1.9 µM. The molecule also gave an IC90 in the test on MT2 above 98 µM.

In test [1], `CC(=O)c1cccc(COC(=O)CCCC[C@@H]2SCC3C2N(Cc2cccc(C(C)=O)c2)C(=O)N3Cc2cccc(C(C)=O)c2)c1` (some centres not stated) showed a Ki of 3.4 µM. In the test on MT2, the IC90 was 12.5 µM.

The molecule `O=C(CCCC[C@@H]1SCC2C1N(Cc1cccc(Br)c1)C(=O)N2Cc1cccc(Br)c1)OCc1cccc(Br)c1` (some centres not stated) came in with a Ki in test [1] of 0.68 µM. In addition, in the test on MT2, the 90% effect level (IC90) was put at 45 µM.

Molecule `COC(=O)CCCC[C@@H]1SCC2C1N(Cc1cccc(Br)c1)C(=O)N2Cc1cccc(Br)c1` (some centres not stated) registered a Ki in test [1] of 0.58 µM. Further, the concentration for an effect of 90% (IC90) in the test with MT2 was determined as 44 µM.

In test [1], `COC(=O)CCCC[C@H]1C2C(CS1(=O)=O)N(Cc1cccc(Br)c1)C(=O)N2Cc1cccc(Br)c1` (some centres not stated) showed a Ki of 4.1 µM. Also, the IC90 with MT2 was above 80 µM.

In turn, `O=C1N(Cc2ccccc2)C2CS[C@@H](CCCCCO)C2N1Cc1ccccc1` (some centres not stated) came in with an inhibitory constant (Ki) in test [1] of 10.3 µM. This molecule came in with a 90% effect concentration (IC90) with MT2 of 46 µM.

In test [1], `O=C1N(Cc2cccc(Br)c2)C2CS(=O)(=O)[C@@H](CCCCCO)C2N1Cc1cccc(Br)c1` (some centres not stated) displayed an inhibitory constant (Ki) of 6.9 µM. Besides, in the test on MT2, the concentration for an effect of 90% (IC90) came to 80 µM.

Consider `C/C(=N\O)c1cccc(COC(=O)CCCC[C@@H]2SCC3C2N(Cc2cccc(/C(C)=N/O)c2)C(=O)N3Cc2cccc(/C(C)=N/O)c2)c1` (some centres not stated), for which the affinity in test [1] corresponds to a Ki of 2.7 µM. Moreover, the IC90 in the test with MT2 amounted to 67 µM.

In test [1], `O=C(O)CCCC[C@@H]1SCC2C1N(Cc1cccc(Br)c1)C(=O)N2Cc1cccc(Br)c1` (some centres not stated) came in with a Ki of 2.2 µM. Further, the IC90 with MT2 amounted to 34 µM.

In test [1], `CC(=O)c1cccc(CN2C(=O)N(Cc3cccc(C(C)=O)c3)C3C2CS[C@H]3CCCCCO)c1` (some centres not stated) returned an inhibition constant (Ki) of 3.7 µM. In addition, in the test on MT2, the IC90 stood at 26 µM.
